Experimental data from US20110160303A1, “N-ALKYLCARBONYL-AMINO ACID ESTER AND N-ALKYLCARBONYL-AMINO LACTONE COMPOUNDS AND THEIR USE” (Edward Tak WEI, priority 2005, published 2011).

Tests used:
[1] = test system: skin above the upper lip; assay: Cooling sensation on facial skin, ointment applied to skin above the upper lip; type: in vivo, human; design: key to refreshing cooling and absence of skin irritation or eye irritation (“perfect cool”): (*) denotes compounds with refreshing cooling and absence of skin irritation or eye irritation after facial skin or periorbital applications; a “perfect cool.”; settings: for Duration of Skin Cooling: 40 mM (1% wt/vol) ointment; for Duration of Skin Cooling / Duration of Action On-Off (minutes): On (onset) / Duration of Action On-Off (minutes): duration (offset minus onset) / Duration of Action On-Off (minutes): Off (offset): skin above upper lip; for Duration of Action On-Off (minutes): On (onset): 40 mM (~1% wt/vol) Aquaphor ointment, 40 to 70 mg, time to reach 2 units of coolness; for Duration of Action On-Off (minutes): duration (offset minus onset) / Duration of Action On-Off (minutes): Off (offset): 40 mM Aquaphor ointment; for Duration of Action On-Off (minutes): Off (offset): time when coolness drops below 2 units; for refreshing cooling and absence of skin irritation or eye irritation (“perfect cool”): after facial skin or periorbital applications
Text: A reliable place for topical application is the skin above the upper lip (above the vermilion border of the lips), on the philtrum, lateral to the philtrum until the nasolabial folds, and on the lower nostrils (subnasale). This part of the face is known to be densely innervated with cold receptors, second only to the surfaces of the eyeball and anogenitalia. A second location is on or below the malar eminence (cheekbone). The skin above the cheekbone is thicker than above the lips, and therefore has a higher threshold for activation. At both loci, tingling, cool and cold sensations in the skin may be experienced and rated for time of onset and intensity.
The intensity of the subjective skin sensation is rated as 0, 1, 2 or 3 with: 0 as no change; 1 as slight coolness, cold, or tingling; 2 as clear-cut signal of coolness, cold, or tingling; and 3 as robust cooling or cold. The intervals for recording sensations are 5 to 10 minutes, until two successive zeroes are obtained. The results (shown in FIGS. 1 and 2) are averaged values of 4 to 6 separate trials in the same individual. The data are plotted using SigmaPlot® (Systat Software, Point Richmond Calif.) and a smoothing function with a negative exponential was used for analysis and statistical fit of the results. Confirmatory trials of cooling action of the long-acting NACE compounds were obtained in 2 to 4 individuals but not quantified for some because of the large number of chemicals that were evaluated.
(§1) The onset of drug action is taken as the time to reach 2 units of coolness intensity, and offset of drug action is the time when coolness intensity drops below 2, after previously surpassing 2 units. The duration of cooling action is defined as the offset time minus the onset time. […] The quality of the sensation is noted, for example, as pure refreshing coolness, or if the sensation is accompanied by irritation (stinging or burning). The quality of the sensation is not rated for intensity.
For bioassay on the skin, approximately 30 mg was stirred and dissolved in 3 g of warm liquid Aquaphor® ointment to a yield a 40 mM (˜1% wt/vol) ointment. The exact amount was adjusted so that the molar equivalent was about 35 to 40 mM. After cooling, 40 to 70 mg of the solid ointment was placed on the tip of a plastic stick and applied to the skin above the upper lip, on the philtrum, and lateral to the philtrum, up to the nasolabial folds, of test subjects and the onset and duration of cooling sensations noted.
The intensity of the subjective skin sensation was rated as 0, 1, 2 or 3 with: 0 as no change; 1 as slight coolness, cold, or tingling; 2 as clear signal of coolness, cold, or tingling; and 3 as robust cooling or cold. The intervals for recording sensations were 5 to 10 minutes, until two successive zeroes were obtained. The results (shown in FIGS. 1 and 2) are averaged values of 4 to 6 separate trials in the same individual. The data are plotted using SigmaPlot® (Systat Software, Point Richmond, Calif., USA) and a smoothing function with a negative exponential was used for analysis and statistical fit of the results.
as §1, with “was” for “is”, “was also noted: such” for “is noted, for example,”
Test compounds were singly applied to the skin above the upper lips at a 40 to 70 mg dose of a 1% wt/vol ointment.

[2] = Octanol/water partition coefficient; type: physicochemical
Procedure: The octanol/water partition coefficients (given in log P units) for a number of compounds were determined and are shown in Table 7, together with the threshold for cooling on the tongue tested at 40 mM. […] A longer duration of action was not precisely matched with log P values.

[3] = test system: oral cavity; assay: Oral cavity test, substance placed on dorsal surface of the tongue; type: in vivo, human; settings: Study 7, 2 mg per dose
Procedure: The subject is instructed to close and hold the substance in the mouth for at least 10 seconds and not to swallow. The description of sensations is then recorded at 5 minute intervals.
The compounds of Formula (1) and (2) are white crystalline solids at room temperatures. These compounds were tested as such, or mixed 1:1 with powdered or granulated sugar. The test substances were applied at 1 to 5 mg on the mid-point of the dorsal surface of the tongue using a metal spatula or a plastic applicator. After depositing the test substance on the tongue, the subject was instructed to keep the mouth closed and allow the fluids of the mouth to inter-mix with the test substance and to distribute it to the back of the mouth (oropharynx). The presence and duration of subjective sensations from the mouth was then noted.
In normal subjects, the effects of the D-Ala methyl and ethyl ester compounds falling within Formula (1) ((R)-2-[((1R,2S,5R)-2-isopropyl-5-methyl-cyclohexanecarbonyl)-amino]-propionic acid methyl or ethyl ester)) were examined. Three doses of 1, 2 and 4 mg per application were examined and compared to a similar dose of the L-Ala methyl or ester analog ((S)-2-[((1R,2S,5R)-2-isopropyl-5-methyl-cyclohexanecarbonyl)-amino]-propionic acid methyl or ethyl ester). At the 2 or 4 mg dose, all compounds produced pleasant and robust cooling sensations on the tongue, extending down to the back of throat, and lasted for about 30 minutes and longer. The onset effect was usually within 30 seconds of application.

[4] = test system: tongue; assay: Threshold for cooling on the tongue; type: in vivo, human; settings: threshold for cooling on the tongue
Procedure: Watson et al. (U.S. Pat. No. 4,178,459) tested the properties of N-substituted p-menthane carboxamides on volunteers by putting filter paper (1×1 cm), impregnated with a known amount of compound, onto the dorsal surface of the tongue of the test subject. After 30 seconds, the subject was required to report presence or absence of a cooling effect. […] The average threshold of (−)-menthol for 6 subjects was 0.25 μg, but there was a 100-fold variation in individual sensitivity. As noted above, coolness signals detected from the dorsal surface of the tongue may be confounded by gustatory, olfactory, and other variables, as well as by dilution from saliva. The octanol/water partition coefficients (given in log P units) for a number of compounds were determined and are shown in Table 7, together with the threshold for cooling on the tongue tested at 40 mM. […] A longer duration of action was not precisely matched with log P values.

logP [2] | Log P [2] | SMILES | Duration of Skin Cooling [1] | Duration of Action On-Off (minutes): On (onset) [1] [min] | Duration of Action On-Off (minutes): duration (offset minus onset) [1] | Duration of Action On-Off (minutes): Off (offset) [1] [min] | refreshing cooling and absence of skin irritation or eye irritation (“perfect cool”) [1] | cooling sensation at the back of the throat [3] | Threshold tongue [4] [µg]
2.5 | – | CC(C)[C@@H]1CC[C@@H](C)C[C@H]1C(=O)NC1CCOC1=O (mixture of isomers) [racemic Hsl, (1R,2S,5R)-2-isopropyl-5-methyl-cyclohexanecarboxylic acid (2-oxo-tetrahydro-furan-3-yl)-amide] | 1.4 h | 2 | 84 min | 86 | racemic Hsl (*) | robust and prolonged cooling | –
– | 5.8 | CCOc1ccc(NC(=O)C2CC(C)CCC2C(C)C)cc1 (stereo not drawn) [CPS-306] | not active | – | inactive | – | – | – | –
– | 6.9 | CCCCOc1ccc(NC(=O)C2CC(C)CCC2C(C)C)cc1 (stereo not drawn) [CPS-308] | not active | – | inactive | – | – | – | –
– | 5.0 | COc1ccc(NC(=O)C2CC(C)CCC2C(C)C)c(OC)c1 (stereo not drawn) [CPS-309] | 0.6 h | 13 | 37 min | 50 | – | – | –
– | 6.3 | CCCOc1ccc(NC(=O)C2CC(C)CCC2C(C)C)cc1 (stereo not drawn) [CPS-310] | not active | – | inactive | – | – | – | –
2.5 | – | CC(C)[C@@H]1CC[C@@H](C)C[C@H]1C(=O)N[C@@H]1CCOC1=O [D-Hsl, (1R,2S,5R)-2-isopropyl-5-methyl-cyclohexanecarboxylic acid ((R)-2-oxo-tetrahydro-furan-3-yl)-amide] | 1.3 h | 2 | 78 min | 80 | D-Hsl (*) | robust and prolonged cooling | –
– | 2.2 | COC(=O)CCC(NC(=O)C1CC(C)CCC1C(C)C)C(=O)OC (stereo not drawn) [Glu(OMe) Me Ester] | not active | – | not active | – | – | – | –
– | 2.4 | COC(=O)CNC(=O)C1CC(C)CCC1C(C)C (stereo not drawn) [Gly Me Ester (WS-31), reference compound] | 0.3 h | 5 | 20 min | 25 | – | – | 0.6
– | 3.1 | CCOC(=O)C(C)NC(=O)C1CC(C)CCC1C(C)C [L-Ala Et Ester] | 0.7 h | 8 | 44 min | 52 | – | – | 0.4
– | 2.8 | COC(=O)C(C)NC(=O)C1CC(C)CCC1C(C)C [L-Ala Me Ester] | 1.3 h | 1 | 79 min | 80 | – | – | 0.6
2.5 | – | CC(C)[C@@H]1CC[C@@H](C)C[C@H]1C(=O)N[C@H]1CCOC1=O [L-Hsl, (1R,2S,5R)-2-isopropyl-5-methyl-cyclohexanecarboxylic acid (S)-(2-oxo-tetrahydro-furan-3-yl)-amide] | 1.4 h | 2 | 85 min | 87 | L-Hsl (*) | robust and prolonged cooling | –
– | 4.2 | COC(=O)C(NC(=O)C1CC(C)CCC1C(C)C)C(C)C [L-Val Me Ester] | not active | – | not active | – | – | – | –
3.3 | – | COC(=O)C1CCCN1C(=O)[C@@H]1C[C@H](C)CC[C@H]1C(C)C (stereo partly drawn) [Pro Me Ester] | not active | – | not active | – | – | – | –
– | 4.1 | CC1CCC(C(C)C)C(C(=O)NC(C)C)C1 (stereo not drawn) [WS-10, reference compound] | 0.3 h | 6 | 19 min | 25 | – | – | 0.4
– | 4.6 | CCC(C)NC(=O)C1CC(C)CCC1C(C)C (stereo not drawn) [WS-34, reference compound] | not active | – | inactive | – | – | – | 0.7
– | 3.1 | CCOC(=O)CCNC(=O)C1CC(C)CCC1C(C)C (stereo not drawn) [β-Ala Et Ester] | 1.4 h | 3 | 87 min | 90 | – | – | 1.5
